Structures are written as SMILES. Where a name gives a salt, the structure may show the parent alone.

For one assay, the system named is HIV-1 NL4-3 strain. The assay can be described thus: Evaluation of antiviral activity: acute infection system of MT-4 cell with HIV-1 NL4-3 strain. It counts as cell-based. As to conditions: Human immunodeficiency virus 1, NL43, MT4, 120 h, MT-4 cells infected with HIV-1 NL4-3 strain (MOI 0.05), cultured 5 days, Cell Titer-Glo; read-out: antiviral activity (EC50). Background: In ATP-based viability assays light output follows the ATP content of the culture.
Usually EC50 stands for the midpoint of the concentration-response curve. Regarding `CC(=O)NC[C@H]1C[C@]2(CN(C(C)C)C(=O)c3c(O)c(=O)c(C(=O)NCc4ccc(F)cc4F)cn32)C1` [Example S38, cis-3-(acetamidomethyl)-N-(2,4-difluorobenzyl)-9′-hydroxy-2′-isopropyl-1′,8′-dioxo-1′,2′,3′,8′-tetrahydrospiro[cyclobutane-1,4′-pyrido[1,2-a]pyrazine]-7′-carboxamide hydrochloride], the EC50 is 50 nM.
Same read-out and setting: next, `CCOC[C@H]1C[C@@]12Cn1cc(C(=O)NCc3ccc(F)cc3F)c(=O)c(O)c1C(=O)N2C(C)C` [Example T43, (1S,2S)-N-(2,4-difluorobenzyl)-2-(ethoxymethyl)-9′-hydroxy-2′-isopropyl-1′,8′-dioxo-1′,2′,4′,8′-tetrahydrospiro[cyclopropane-1,3′-pyrido[1,2-a]pyrazine]-7′-carboxamide]: 5.3 nM; `CC(C)O[C@H]1C[C@@]2(CN(C(C)C)C(=O)c3c(O)c(=O)c(C(=O)NCc4ccc(F)cc4F)cn32)C1` [Example S32, N-(2,4-difluorobenzyl)-9′-hydroxy-trans-3-isopropoxy-2′-isopropyl-1′,8′-dioxo-1′,2′,3′,8′-tetrahydrospiro[cyclobutane-1,4′-pyrido[1,2-a]pyrazine]-7′-carboxamide hydrochloride]: 6.6 nM; `COC[C@H]1C[C@@]12CN(C)C(=O)c1c(O)c(=O)c(C(=O)NCc3cc(N4CCCC4=O)cc(Cl)c3F)cn12` [Example T34, (1S,2S)-N-(3-chloro-2-fluoro-5-(2-oxopyrrolidin-1-yl)benzyl)-9′-hydroxy-2-(methoxymethyl)-2′-methyl-1′,8′-dioxo-1′,2′,3′,8′-tetrahydrospiro[cyclopropane-1,4′-pyrido[1,2-a]pyrazine]-7′-carboxamide]: 23 nM.
On the same count and under the same terms, next, `CO[C@H]1C[C@]2(CN(C)C(=O)c3c(O)c(=O)c(C(=O)NCc4cccc(Cl)c4F)cn32)C1` [Example 23, N-(3-chloro-2-fluorobenzyl)-9′-hydroxy-cis-3-methoxy-2′-methyl-1′,8′-dioxo-1′,2′,3′,8′-tetrahydrospiro[cyclobutane-1,4′-pyrido[, 2-a]pyrazine]-7′-carboxamide]: 1.6 nM; `COC[C@H]1C[C@]2(CN(C(C)C)C(=O)c3c(O)c(=O)c(C(=O)NCc4ccc(F)cc4F)cn32)C1` [Example S23, N-(2,4-difluorobenzyl)-9′-hydroxy-2′-isopropyl-cis-3-(methoxymethyl)-1′,8′-dioxo-1′,2′,3′,8′-tetrahydrospiro[cyclobutane-1,4′-pyrido[1,2-a]pyrazine]-7′-carboxamide hydrochloride]: 6.3 nM; `CCN1C[C@]2(C[C@H](COC)C2)n2cc(C(=O)NCc3cccc(Cl)c3F)c(=O)c(O)c2C1=O` [Example S47, N-(3-chloro-2-fluorobenzyl)-2′-ethyl-9′-hydroxy-cis-3-(methoxymethyl)-1′,8′-dioxo-1′,2′,3′,8′-tetrahydrospiro[cyclobutane-1,4′-pyrido[1,2-a]pyrazine]-7′-carboxamide hydrochloride]: 3.5 nM.

The assay is the same for the next values; noted with them: Human immunodeficiency virus 1, NL43, MT4, 120 h, antiviral activity; MT-4 cells infected with HIV-1 NL4-3 (MOI 0.05), 5 days culture, Cell Titer-Glo luminescence.
The compound `COC[C@H]1C[C@]2(CN(C)C(=O)c3c(O)c(=O)c(C(=O)NCc4cccc(Cl)c4F)cn32)C1` [Example 3, N-(3-chloro-2-fluorobenzyl)-9′-hydroxy-cis-3-(methoxymethyl)-2′-methyl-1′,8′-dioxo-1′,2′,3′,8′-tetrahydrospiro[cyclobutane-1,4′-pyrido[1,2-a]pyrazine]-7′-carboxamide hydrochloride] yielded an EC50 of 3.2 nM.

Staying with this assay, now noted: Human immunodeficiency virus 1, NL43, MT4, 120 h, read-out: antiviral activity (EC50), MT-4 cells infected with HIV-1 NL4-3 strain (MOI 0.05), cultured 5 days, Cell Titer-Glo.
For the compound `COC[C@H]1C[C@@]12CN(C)C(=O)c1c(O)c(=O)c(C(=O)NCc3ccc(F)cc3F)cn12` [Example T3, (1S,2S)-N-(2,4-difluorobenzyl)-9′-hydroxy-2-(methoxymethyl)-2′-methyl-1′,8′-dioxo-1′,2′,3′,8′-tetrahydrospiro[cyclopropane-1,4′-pyrido[1,2-a]pyrazine]-7′-carboxamide hydrochloride], the EC50 is 4.5 nM.
Same read-out and setting: next, `CCOc1ccc(CNC(=O)c2cn3c(c(O)c2=O)C(=O)N(C)C[C@]32C[C@H]2COC)c(F)c1Cl` [Example T38, (1R,2R)-N-(3-chloro-4-ethoxy-2-fluorobenzyl)-9′-hydroxy-2-(methoxymethyl)-2′-methyl-1′,8′-dioxo-1′,2′,3′,8′-tetrahydrospiro[cyclopropane-1,4′-pyrido[1,2-a]pyrazine]-7′-carboxamide hydrochloride]: 77 nM.
Consider `COC[C@@H]1C[C@]12CN(C(C)C)C(=O)c1c(O)c(=O)c(C(=O)NCc3cccc(Cl)c3F)cn12` [Example T6, (1R,2R)-N-(3-chloro-2-fluorobenzyl)-9′-hydroxy-2′-isopropyl-2-(methoxymethyl)-1′,8′-dioxo-1′,2′,3′,8′-tetrahydrospiro[cyclopropane-1,4′-pyrido[1,2-a]pyrazine]-7′-carboxamide hydrochloride], for which the EC50 came out at 3.8 nM.
As to `CC(C)N1C[C@@]2(C[C@H]2CO)n2cc(C(=O)NCc3cccc(Cl)c3F)c(=O)c(O)c2C1=O` [Example T28, (1S,2R)-N-(3-chloro-2-fluorobenzyl)-9′-hydroxy-2-(hydroxymethyl)-2′-isopropyl-1′,8′-dioxo-1′,2′,3′,8′-tetrahydrospiro[cyclopropane-1,4′-pyrido[1,2-a]pyrazine]-7′-carboxamide hydrochloride], the EC50 was found to be 5.2 nM.
With `CC(C)N1C[C@@]2(C[C@@H]2C(=O)N(C)C)n2cc(C(=O)NCc3cccc(Cl)c3F)c(=O)c(O)c2C1=O` [Example T13, (1S,2S)-N^7′-(3-chloro-2-fluorobenzyl)-9′-hydroxy-2′-isopropyl-N^2,N^2-dimethyl-1′,8′-dioxo-1′,2′,3′,8′-tetrahydrospiro[cyclopropane-1,4′-pyrido[1,2-a]pyrazine]-2,7′-dicarboxamide hydrochloride], the concentration for a half-maximal effect (EC50) amounted to 3.4 nM.
On the same count and under the same terms, next, `COC[C@H]1C[C@@]12CN(C)C(=O)c1c(O)c(=O)c(C(=O)NCc3cc(OC(C)C)cc(Cl)c3F)cn12` [Example T26, (1S,2S)-N-(3-chloro-2-fluoro-5-isopropoxybenzyl)-9′-hydroxy-2-(methoxymethyl)-2′-methyl-1′,8′-dioxo-1′,2′,3′,8′-tetrahydrospiro[cyclopropane-1,4′-pyrido[1,2-a]pyrazine]-7′-carboxamide hydrochloride]: 15 nM.

The assay is the same for the next values; noted with them: Human immunodeficiency virus 1, NL43, MT4, 120 h; read-out: antiviral activity (EC50).
In the case of `CN1C[C@]2(C[C@H](C(=O)O)C2)n2cc(C(=O)NCc3cccc(Cl)c3F)c(=O)c(O)c2C1=O` [Example 22, 7′-(3-chloro-2-fluorobenzylcarbamoyl)-9′-hydroxy-2′-methyl-1′,8′-dioxo-1′,2′,3′,8′-tetrahydrospiro[cyclobutane-1,4′-pyrido[1,2-a]pyrazine]-cis-3-carboxylic acid hydrochloride], the EC50 was 400 nM.

The same assay, now with this note: MT-4 cells infected with HIV-1 NL4-3 strain (MOI 0.05), cultured 5 days, Cell Titer-Glo; read-out: antiviral activity (EC50).
For the compound `COC[C@H]1C[C@]2(CN(C)C(=O)c3c(O)c(=O)c(C(=O)NCc4cccc(Cl)c4F)cn32)C1` [Example 32, N-(3-chloro-2-fluorobenzyl)-9′-hydroxy-cis-3-(methoxymethyl)-2′-methyl-1′,8′-dioxo-1′,2′,3′,8′-tetrahydrospiro[cyclobutane-1,4′-pyrido[1,2-a]pyrazine]-7′-carboxamide monosulfate], the EC50 is 0.9 nM.

These data come from patent US10087178B2, “Substituted spiropyrido[1,2-a]pyrazine derivative and medicinal use thereof as HIV integrase inhibitor” (priority 2012, dated 2018).
